Counter-ions that a name gives are not always drawn.

Data on five compounds can be found in patent publication US20060281789A1, “Protein kinase inhibitors” (KYOWA HAKKO KOGYO CO., LTD, priority 2003, published 2006).

One assay has as its target T1, human Flt-3 (Homo sapiens, UniProt P36888).
T1 construct: fused to the N-terminus of the intracellular domain (583-953 amino acids) thereof; made in house; host or cells: insect cells (baculovirus)
T1 sequence (P36888 583-953): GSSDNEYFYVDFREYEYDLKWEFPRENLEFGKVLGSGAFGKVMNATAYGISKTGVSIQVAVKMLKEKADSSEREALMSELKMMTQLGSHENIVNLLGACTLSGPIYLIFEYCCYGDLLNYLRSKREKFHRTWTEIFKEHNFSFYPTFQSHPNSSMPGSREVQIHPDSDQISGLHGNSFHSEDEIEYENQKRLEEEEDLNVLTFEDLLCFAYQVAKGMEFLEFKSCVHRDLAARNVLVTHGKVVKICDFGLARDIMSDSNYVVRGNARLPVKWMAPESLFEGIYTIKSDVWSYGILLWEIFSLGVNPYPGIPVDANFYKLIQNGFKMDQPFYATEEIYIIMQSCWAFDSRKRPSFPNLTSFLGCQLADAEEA
Kind of assay: Inhibitory activity on Flt-3 (GST-fused kinase, time-resolved fluoroimmunoassay). Type of assay: biochemical. The conditions noted are these: tested compound 10 μmol/L, ATP 10 μmol/L, sixty minutes. The protocol: Flt-3 inhibitory activities were determined in the following manner.
Flt-3 was prepared by allowing baculovirus to infect insect cells, which baculovirus expresses a protein comprising human Flt-3 with […]. […] Separately was prepared a solution containing, at final concentrations, GST-fused Flt-3 (100 μg/L), Tris-Cl (pH 7.5) (20 mmol/L), β-glycerophosphate (5 mmol/L), dithiothreitol (DTT) (1 mmol/L), Na3VO4 (0.1 mmol/L), MgCl2 (10 mmol/L), MnCl2 (10 mmol/L), ATP (10 μmol/L), bovine serum albumin (BSA) (0.1%), DMSO (0.1%), and a tested compound (10 μmol/L). The solution (each 60 μL) was placed into the wells of the plate for the determination of kinase reaction, followed by enzymatic reaction at room temperature for sixty minutes. After reacting, the reaction was stopped by the addition of 50 μL of a 25 mmol/L aqueous solution of ethylenediaminetetraacetic acid. […] The relative activity (%) of a well in which the enzyme and tested compound were added was determined by calculation with the value in a well to which the tested compound was not added being 100% and the value in a well to which the enzyme and the tested compound were not added being 0%. The Flt-3 inhibitory activity (%) of the tested compound was determined by subtracting the relative activity (%) from 100.

The test system of another assay is MV-4-11. Nature of the assay: Cytostatic activity on human acute myeloid leukemia cell line MV-4-11 (WST-1). The class given is cell-based. Conditions: MV4-11, 3.16 μmol/L, 72 hours, read-out: MV-4-11 (%) cytostatic rate. The protocol:
(§1) The cytostatic rates of a test compound on human acute myeloid leukemia cell lines MV-4-11 and ML-1, and human chronic myeloid leukemia cell line K562 were determined in the following manner.
(§2) Each cell was cultured using Roswell Park Memorial Institute's Medium (RPMI) 1640 (Gibco, Catalog No. 11875-093) containing 10% fetal bovine serum (Gibco, Catalogue No. 10437-028) and penicillin/streptomycin (1:1) (Gibco, Catalogue No. 15140-122). Each 80 μL of the MV-4-11 cell having a concentration of 7.5×10^4 cells/mL (or the ML-1 cell or K562 cell having a concentration of 2.5×10^4 cells/mL) was inoculated to wells of a TC MICROWELL 96U plate (Nalge Nunc International, Catalogue No. 163320) and was cultured in a 5% carbon dioxide gas incubator at 37° C. for 4 hours. As a blank, only RPMI medium (80 μL) was added to a well. Each 20 μL of a solution of the test compound in dimethyl sulfoxide (DMSO) which was prepared to make the final concentration to 3.16 μmol/L or 10 μmol/L, was added to the MV-4-11 cell, ML-1 cell and K562 cell, respectively. Each 20 μL of DMSO was added to the control well and the blank well to a final concentration of 0.1%. After adding the test compound, the cells were incubated in a 5% carbon dioxide gas incubator at 37° C. for 72 hours. After adding 20 μL of WST-1 reagent {4-[3-(4-iodophenyl)-2-(4-nitrophenyl)-2H-5-tetrazolio]-1,3-benzene disulfonate sodium salt) (Roche Diagnostics K.K., Catalogue No. 1644807) diluted to 50% with RPMI medium, the cells were further incubated at 37° C. for 2 hours. Then, the absorbances at 450 nm (reference wavelength: 690 nm) were determined with a microplate spectrophotometer SPECTRA max 340PC (Molecular Devices Corporation). The relative growth (%) of a well to which the test compound had been added was determined while setting the absorbance of a well to which not the test compound but DMSO alone had been added (control) at 100% and that of a well containing RPMI medium alone at 0%. The cytostatic rate (%) of the test compound was determined by subtracting the calculated relative growth from 100.
Background: Tetrazolium assays rely on reduction of a dye to a coloured formazan, in cell work by metabolically active cells.

A further assay relates to Colo205. Kind of assay: Cytostatic activity on human colon cancer cell line Colo205 (WST-1). Type of assay: cell-based. The conditions noted are these: 10 μmol/L, 72 hours. The procedure: The cytostatic rate of a test compound on the human colon cancer cell line Colo205 was determined in the following manner.
The cell was cultured using Roswell Park Memorial Institute's-Medium (RPMI) 1640 (Gibco, Catalog No. 11875-093) containing 10% fetal bovine serum (Gibco, Catalog-No. 10437-028) and penicillin/streptomycin (1:1) (Gibco, Catalog No. 15140-122). Each 80 μL of the Colo205 having a concentration of 1.25×10^4 cells/mL was inoculated to wells of a TC MICROWELL 96F plate (Nalge Nunc International, Catalog No. 167008) and was cultured in a 5% carbon dioxide gas incubator at 37° C. for 4 hours. As a blank, only RPMI (80 μL) was added to a well. Each 20 μL of a solution of the test compound in DMSO which was prepared to make the final concentration to 10 μmol/L, was added to the Colo205 cell. Each 20 μL of DMSO was added to the control well and the blank well to a final concentration of 0.1%. After adding the test compound, the cell was incubated in a 5% carbon dioxide gas incubator at 37° C. for 72 hours. The cytostatic rate (%) was then determined in the same manner as the method or the leukemia cell lines described above.

Another assay concerns K562. Kind of assay: Cytostatic activity on human chronic myeloid leukemia cell line K562 (WST-1). Type of assay: cell-based. The conditions noted are these: 10 μmol/L, 72 hours, read-out: K562 (%) cytostatic rate. The procedure:
as §1, §2

The subject of another assay is ML-1. Kind of assay: Cytostatic activity on human acute myeloid leukemia cell line ML-1 (WST-1). The conditions noted are these: ML1, 3.16 μmol/L, 72 hours, read-out: ML-1 (%) cytostatic rate. Type of assay: cell-based. The procedure: as §1, §2

Consider `C(=C\c1n[nH]c2ccccc12)/c1ccc(OCCN2CCOCC2)cc1` [Compound 5, (E)-3-{2-[4-(2-morpholinoethoxy)phenyl]vinyl}-1H-indazole hydrochloride], for which the inhibition at 10 µM on human Flt-3 came to 93.3%; in the assay on K562, 81%. Also, the inhibition at 3.16 µM in the assay on MV-4-11 is 91%; in the assay on ML-1 it was 16%. Further, the “Colo205(%) cytostatic rate” value in the assay with Colo205 was 90%.
The corresponding values for `COc1cc(/C=C/c2n[nH]c3ccccc23)ccc1OCC(=O)N1CCOCC1` [Compound 40, (E)-N-{4-[2-(1H-indazol-3-yl)vinyl]-2-methoxyphenoxy}acetylmorpholine] are 93.8%, 60%, 95%, 95% and 93%.
On to `N#Cc1cc(/C=C/c2n[nH]c3ccccc23)ccc1OCCN1CCOCC1` [Compound 47, (E)-3-{2-[3-cyano-4-(2-morpholinoethoxy)phenyl]vinyl}-1H-indazole], for which the inhibition at 10 µM is 94.5% on human Flt-3 and 75% in the assay on K562. Further, the inhibition at 3.16 µM in the assay on MV-4-11 turned out to be 98%; in the assay on ML-1, 89%. Besides, the “Colo205(%) cytostatic rate” value in the assay with Colo205 stood at 68%.
`C(=C\c1n[nH]c2ccccc12)/c1ccc(N2CCNCC2)cc1.Cl` [Compound 53, (E)-3-{2-[4-(piperazin-1-yl)phenyl]vinyl}-1H-indazole hydrochloride]: the inhibition at 10 µM on human Flt-3 amounted to 95.2%; in the assay on K562, 87%. Also, the inhibition at 3.16 µM in the assay on MV-4-11 was 97%; in the assay on ML-1, 80%. The “Colo205(%) cytostatic rate” value in the assay with Colo205 is given as 90%.
The corresponding values for `CC(=O)N1CCN(c2ccc(/C=C/c3n[nH]c4ccccc34)cc2)CC1` [Compound 54, (E)-3-(2-[4-(4-acetylpiperazin-1-yl)phenyl]vinyl}-1H-indazole] are 94%, 59%, 98%, 89% and 78%.
